Assays:
S. aureus Newman [1] = assay: Agglutination assay in plasma, S. aureus Newman; type: cell-based, Staphylococcus aureus; settings: argatroban treatment, increasing concentrations
Protocol: Agglutination assay. Overnight cultures of staphylococcal strains were washed in 1 mL 0.85% NaCl and suspended to a final concentration of OD600 4.0 in 1 mL. Bacteria were incubated with 1:500 Syto9 (Invitrogen) for 15 minutes, washed with 1 mL 0.85% NaCl, and suspended in 1 mL saline. Bacteria were mixed 1:1 with EDTA-chelated rabbit plasma (Becton, Dickinson) on a glass microscope slide and incubated for 15 minutes. Samples were viewed and images captured on an Olympus Provis microscope using a 40× objective. For quantification of agglutination, plasma and bacteria were inoculated onto polystyrene C-Chip disposable hemocytometer slides (IN-CYTO). […] For analysis, the largest aggregate in each field of view was outlined in ImageJ and the area of that aggregate measured. Mean area of S. aureus aggregates were determined and normalized by subtracting Newman in saline without plasma from all values. Percent agglutination was calculated by normalizing all mean intensity values to S. aureus Newman in plasma. […] Fold change in agglutination was calculated as the ratio of mean bacterial aggregation area in the presence of antibody compared to control. Statistical significance, P<0.05, was determined by one way analysis of variance (ANOVA), with Dunnett's multiple comparison analysis for post-hoc testing using GraphPad Prism software. […]

S. aureus N315 [2] = assay: Agglutination assay in plasma, MRSA N315; type: cell-based, Staphylococcus aureus; settings: argatroban (1 mg/mL), OD550 after two hours
S. aureus MW2 [3] = assay: Agglutination assay in plasma, MRSA MW2; type: cell-based, Staphylococcus aureus; settings: argatroban (1 mg/mL), OD550 after two hours
human alpha-thrombin = human alpha-thrombin (Homo sapiens, UniProt P00734); assay: Coagulase activity control: fibrinogen to fibrin conversion by thrombin; type: biochemical; settings: 200 ng argatroban, absorbance at 450 nm, compared to mock control
Protocol: (§1) Coagulase activity. Purified recombinant Coa or vWbp (100 nM) were mixed with human prothrombin (Innovative Research) in 1% sodium-citrate/PBS. After an initial reading, fibrinogen (3 μM) (Sigma) was added and conversion of fibrinogen to fibrin was measured as an increase in turbidity at 450 nm in a plate reader (BioTek) at 2.5 min intervals. As controls, the enzymatic activity of human alpha-thrombin (Innovative Research) or prothombin alone were measured. Argatroban (200 ng, Novaplus) was added to reactions prior to the addition of fibrinogen.

Coa-prothrombin [4] = assay: Coagulase activity: fibrinogen to fibrin conversion by Coa-prothrombin; type: biochemical, S. aureus / human; settings: 200 ng argatroban, absorbance at 450 nm
Protocol: as §1

vWbp-prothrombin = target: T1, vWbp-prothrombin (Homo sapiens, UniProt P00734); assay: Coagulase activity: fibrinogen to fibrin conversion by vWbp-prothrombin; type: biochemical, S. aureus / human; settings: 200 ng argatroban, absorbance at 450 nm
T1 construct: purchased Innovative Research (prothrombin); host or cells: vWbp made in house in E. coli BL21(DE3), Ni-NTA purified
Protocol: as §1

Coa-prothrombin [5] = settings: literature (Hijikata-Okunomiya and Kataoka, 2003; Vanassche et al., 2010); cited from earlier work
S. aureus Newman [6] = assay: Mouse sepsis survival, S. aureus Newman challenge; type: in vivo, BALB/c mice; settings: 10 mg/kg i.p. in 12 hour intervals, mock treated died within 60 hours
S. aureus coa/vwb mutant = assay: Mouse sepsis survival, S. aureus coa/vwb mutant challenge; type: in vivo, BALB/c mice; settings: 10 mg/kg i.p. every 12 h, vs mock
Protocol: (§2) Sepsis. Overnight cultures of staphylococcal strains were diluted 1:100 into fresh TSB and grown until they reached an OD600 of 0.4. Bacteria were centrifuged at 7,000×g, washed, and suspended in the one-tenth volume of PBS. Six week-old female BALB/c mice (n=15) (Charles River) were injected retro-orbitally with 1×10^8 CFU (S. aureus Newman, MW2, and N315) or 5×10^7 CFU (S. aureus USA300) suspensions in 100 μl of PBS. Mice were monitored for survival over 10 days. To enumerate staphylococcal load in heart tissue twelve hours post-infection, mice were euthanized by CO2 asphyxyation and hearts were removed during necropsy. Heart tissue was homogenized in PBS, 0.1% Triton X-100. Serial dilutions of homogenate were spread on TSA and incubated for colony formation. The bacterial load in organ tissue was analyzed in pairwise comparisons between wild-type and mutant strains with the unpaired two-tailed Student's t-test. For histopathology, mice infected with S. aureus were euthanized 12 hours after infection. Hearts were removed during necropsy and fixed in 10% formalin for 24 hours at room temperature. […] Data were analyzed in pairwise comparisons between wild-type and mutant strains with the unpaired two-tailed Student's t-test. […]
(§3) Dabigatran etexilate treatment. […] Thrombin time was measured on a STA-R analyzer (Diagnostica Stago).

S. aureus USA300 LAC = assay: Mouse sepsis survival, S. aureus USA300 LAC challenge; type: in vivo, BALB/c mice; settings: 10 mg/kg i.p. every 12 h; lethal dose S. aureus USA300 LAC; vs mock
Protocol: as §2, §3

clfA mutant S. aureus = assay: Mouse sepsis survival, clfA mutant challenge; type: in vivo, BALB/c mice
Protocol: as §2, §3

clfA (pclfA) variant = assay: Mouse sepsis survival, clfA (pclfA) variant challenge; type: in vivo, BALB/c mice
Protocol: as §2, §3

S. aureus Newman [7] = assay: Heart tissue histopathology 12 hours after S. aureus Newman infection; type: in vivo, BALB/c mice
S. aureus N315 [8] = assay: Mouse sepsis survival, MRSA N315 challenge; type: in vivo, BALB/c mice; settings: lethal challenge S. aureus N315; Dbg 10 mg/kg, antibodies 5 mg/kg
S. aureus MW2 [9] = assay: Mouse sepsis survival, MRSA MW2 challenge; type: in vivo, BALB/c mice; settings: lethal challenge S. aureus MW2; Dbg 10 mg/kg, antibodies 5 mg/kg
[10] = in vivo, sc; cited from earlier work
[11] = Serum IgG after active immunization (ELISA); type: in vivo, BALB/c mice; settings: 50 μg protein in CFA, boost in IFA

Compound: CC1CNc2c(cccc2S(=O)(=O)N[C@@H](CCCNC(=N)N)C(=O)N2CC[C@@H](C)C[C@@H]2C(=O)O)C1 (some centres unmarked) [argatroban]
- agglutination of S. aureus Newman in plasma (S. aureus Newman [1]): interfered with the agglutination
- agglutination of S. aureus N315 in EDTA-plasma (S. aureus N315 [2]): inhibited
- agglutination of S. aureus MW2 in EDTA-plasma (S. aureus MW2 [3]): inhibited
- conversion of fibrinogen to fibrin by thrombin (human alpha-thrombin): blocked
- conversion of fibrinogen to fibrin by Coa-prothrombin (Coa-prothrombin [4]): blocked
- conversion of fibrinogen to fibrin by vWb-prothrombin (vWbp-prothrombin): blocked
- inhibition of the proteolytically active Coa-prothrombin complex (Coa-prothrombin [5]): inhibit

Compound: CCCCCCOC(=O)N=C(N)c1ccc(NCc2nc3cc(C(=O)N(CCC(=O)OCC)c4ccccn4)ccc3n2C)cc1 [dabigatran-etexilate]
- survival after challenge (S. aureus Newman [6]): up to 132 hours
- survival or time-to-death (S. aureus coa/vwb mutant): no effect
- survival of septic mice (S. aureus USA300 LAC): prolonged the survival
- survival and time-to-death (clfA mutant S. aureus; clfA mutant challenge compared to control strain harboring pclfA): increased the survival and time-to-death
- disease outcome (clfA mutant S. aureus; clfA mutant challenge compared to mock treated mice): further improved the disease outcome
- benefit from treatment (time-to-death) (clfA (pclfA) variant): benefited
- agglutination of staphylococcus in heart tissue (S. aureus Newman [7]; dabigatran-etexilate treatment, S. aureus Newman, 12 hours, histopathology): reduced agglutination

Compound: [H]/N=C(/N)c1ccc(NCc2nc3cc(C(=O)N(CCC(=O)O)c4ccccn4)ccc3n2C)cc1 [dabigatran]
- time-to-death / survival during sepsis (S. aureus N315 [8]): did not prolong the survival
- time-to-death / survival during sepsis (S. aureus MW2 [9]): did not prolong the survival
- inhibition of the proteolytically active Coa-prothrombin complex (Coa-prothrombin [5]): inhibit

Compound: N=C(N)c1ccc(CNC(=O)[C@@H]2CCN2C(=O)[C@H](NCC(=O)O)C2CCCCC2)cc1 [melagatran]
- dose at which toxicity began [10]: over 5 mg

Compound: ClfA: purified recombinant S. aureus clumping factor A; used in binding assay and as antigen for active immunization
- frequency of heart lesions (S. aureus Newman [7]; active immunization, challenged twelve hours with wild-type S. aureus Newman): reduced the frequency of heart lesions
- specific IgG antibodies after active immunization [11]: raised specific IgG antibodies

Source: patent US20140271649A1, “METHODS AND COMPOSITIONS FOR INHIBITING STAPHYLOCOCCUS AGGLUTINATION IN BLOOD” (The University of Chicago, priority 2011, published 2014)
